In patent US11911361B2, “Stable cannabinoid formulations” (priority 2014, dated 2024):

Key:
[1] = Pharmacokinetic food-effect study, single 20 mg/kg dose, healthy subjects (Example 17); details: 7-OH-cannabidiol; for ln(AUC0-inf) Geometric Mean / ln(AUC0-t) Geometric Mean / ln(Cmax) Geometric Mean: least squares geometric mean; for AUC0 / AUC0-0.25 / AUC0-0.5 / AUC0-0.75 / AUC0-1 / AUC0-1.5 / AUC0-2 / AUC0-2.5 / AUC0-3 / AUC0-4 / AUC0-6 / AUC0-8 / AUC0-12 / AUC0-16 / AUC0-24 / AUC0-36 / AUC0-48 / AUC0-72 / AUC0-96 / AUC0-120: single 20 mg/kg cannabidiol oral, mean ± SD; for AUC(0-inf) / AUC(0-t) / AUCextrap / Clast / Cmax / Tlast / t1/2 / λz / Tmax: single 20 mg/kg oral dose of cannabidiol solution; for AUC(0-inf) / AUC(0-t) / AUCextrap / Clast / Cmax / Tlast / t1/2 / λz: mean; for Tmax: median (min, max)
Method: An open label, randomized, single-dose, two-period, two-way crossover food-effect study was conducted on healthy subjects. […] Twenty-four (24) subjects were enrolled in the study and each were subjected to the fasted and fed treatment arms in separate periods followed by a 7-day wash-out period. For pharmacokinetic analysis, nominal time and default lambda-z selections were used. All below quantifiable limit values were set to zero and all subjects were included in the analysis.
Data from 13 subjects from the fasted treatment and 24 subject from the fed treatment were included in the pharmacokinetic and statistical analyses.

[2] = test system: paclitaxel-induced mechanical sensitivity; assay: Paclitaxel induced neuropathic pain study (Von Frey mechanical sensitivity); format: in vivo, mice
[3] = 20 mg/kg cannabidiol oral, Fasted
[4] = 20 mg/kg cannabidiol oral, geometric mean (fed)/geometric mean (fasted)

What does the source list for `C=C(C)[C@@H]1CCC(CO)=C[C@H]1c1c(O)cc(CCCCC)cc1O` [Formulation 7-OH-cannabidiol]?
ln(AUC0-inf) Geometric Mean [1, 3]: 657.5873; ln(AUC0-t) Geometric Mean [1, 3]: 630.3322; ln(Cmax) Geometric Mean [1, 3]: 34.8933; ln(AUC0-inf) Geometric Mean ([1]; 20 mg/kg cannabidiol oral, Fed): 4701.4345; ln(AUC0-t) Geometric Mean ([1]; 20 mg/kg cannabidiol oral, Fed): 4610.3024; ln(Cmax) Geometric Mean ([1]; 20 mg/kg cannabidiol oral, Fed): 442.6751; ln(AUC0-inf) Ratio (%) (Fed/Fasted) [1, 4]: 714.95%; ln(AUC0-t) Ratio (%) (Fed/Fasted) [1, 4]: 731.41%; ln(Cmax) Ratio (%) (Fed/Fasted) [1, 4]: 1268.65%; AUC0 ([1]; fasted): 0.114 ± 0.410 ng·h/mL; AUC0-0.25 ([1]; fasted): 0.101 ± 0.363 ng·h/mL; AUC0-0.5 ([1]; fasted): 0.217 ± 0.361 ng·h/mL; AUC0-0.75 ([1]; fasted): 0.954 ± 0.843 ng·h/mL; AUC0-1 ([1]; fasted): 2.29 ± 2.13 ng·h/mL; AUC0-1.5 ([1]; fasted): 3.91 ± 3.90 ng·h/mL; AUC0-2 ([1]; fasted): 5.46 ± 5.23 ng·h/mL; AUC0-2.5 ([1]; fasted): 6.81 ± 6.85 ng·h/mL; AUC0-3 ([1]; fasted): 7.83 ± 8.27 ng·h/mL; AUC0-4 ([1]; fasted): 8.65 ± 8.64 ng·h/mL; AUC0-6 ([1]; fasted): 9.79 ± 7.71 ng·h/mL; AUC0-8 ([1]; fasted): 18.5 ± 34.2 ng·h/mL; AUC0-12 ([1]; fasted): 10.1 ± 8.36 ng·h/mL; AUC0-16 ([1]; fasted): 7.23 ± 4.28 ng·h/mL; AUC0-24 ([1]; fasted): 6.09 ± 2.70 ng·h/mL; AUC0-36 ([1]; fasted): 4.39 ± 2.45 ng·h/mL; AUC0-48 ([1]; fasted): 3.00 ± 1.91 ng·h/mL; AUC0-72 ([1]; fasted): 1.65 ± 1.38 ng·h/mL; AUC0-96 ([1]; fasted): 1.04 ± 1.11 ng·h/mL; AUC0-120 ([1]; fasted): 0.511 ± 0.799 ng·h/mL; AUC0 ([1]; fed): 0.131 ± 0.537 ng·h/mL; AUC0-0.25 ([1]; fed): 0.221 ± 0.676 ng·h/mL; AUC0-0.5 ([1]; fed): 0.980 ± 1.29 ng·h/mL; AUC0-0.75 ([1]; fed): 2.87 ± 4.21 ng·h/mL; AUC0-1 ([1]; fed): 7.33 ± 11.7 ng·h/mL; AUC0-1.5 ([1]; fed): 47.5 ± 78.5 ng·h/mL; AUC0-2 ([1]; fed): 104 ± 150 ng·h/mL; AUC0-2.5 ([1]; fed): 158 ± 202 ng·h/mL; AUC0-3 ([1]; fed): 197 ± 235 ng·h/mL; AUC0-4 ([1]; fed): 289 ± 290 ng·h/mL; AUC0-6 ([1]; fed): 346 ± 188 ng·h/mL; AUC0-8 ([1]; fed): 284 ± 128 ng·h/mL; AUC0-12 ([1]; fed): 187 ± 121 ng·h/mL; AUC0-16 ([1]; fed): 85.7 ± 36.9 ng·h/mL; AUC0-24 ([1]; fed): 47.5 ± 23.0 ng·h/mL; AUC0-36 ([1]; fed): 26.7 ± 13.1 ng·h/mL; AUC0-48 ([1]; fed): 16.9 ± 7.73 ng·h/mL; AUC0-72 ([1]; fed): 7.36 ± 3.10 ng·h/mL; AUC0-96 ([1]; fed): 4.03 ± 1.94 ng·h/mL; AUC0-120 ([1]; fed): 2.41 ± 1.26 ng·h/mL; AUC(0-inf) ([1]; fasted): 425.3 ng·h/mL; AUC(0-t) ([1]; fasted): 414.7 ng·h/mL; AUCextrap ([1]; fasted): 2.77%; Clast ([1]; fasted): 0.561 ng/mL; Cmax ([1]; fasted): 22.8 ng/mL; Tlast ([1]; fasted): 114.47 h; t1/2 ([1]; fasted): 21.36 h; λz ([1]; fasted): 0.0348 h⁻¹; Tmax ([1]; fasted): 8.00 (2.50, 24.00) h; AUC(0-inf) ([1]; fed): 4902 ng·h/mL; AUC(0-t) ([1]; fed): 4811 ng·h/mL; AUCextrap ([1]; fed): 1.93%; Clast ([1]; fed): 2.41 ng/mL; Cmax ([1]; fed): 474 ng/mL; Tlast ([1]; fed): 120.00 h; t1/2 ([1]; fed): 24.69 h; λz ([1]; fed): 0.0292 h⁻¹; Tmax ([1]; fed): 6.00 (3.00, 12.00) h

For `CCCCCc1cc(O)c2c(c1)OC(C)(C)[C@@H]1CCC(C)=C[C@@H]21` [THC, reference compound], which minimal effective dose ([2]; IP) is on record?
The minimal effective dose was 2.5 mg/kg.

And the “dose equi-effective to […] CBD” value ([2]; dose equivalence analysis)?
The value was 0.7 mg/kg.

And the “effect on paclitaxel-induced mechanical sensitivity (in words)” value ([2]; pretreatment 15 minutes prior to each paclitaxel injection, IP)?
The value was “significantly attenuated”.
